Test results reported in article PMC5766630, “Non-estrogenic Xanthohumol Derivatives Mitigate Insulin Resistance and Cognitive Impairment in High-Fat Diet-induced Obese Mice” (Scientific Reports, 2018).

Legend:
[1] = target: T1, full-length purified human estrogen receptor ERα (Homo sapiens, UniProt P03372); experiment: ERα competitive radiometric binding assay; conditions: for RBA ERα (relative binding affinity): RBA = IC50[estradiol]/IC50[compound] × 100, estradiol = 100, 2 nM [3H]-estradiol tracer, 18–24 h at 0 °C
T1 construct: full-length purified human estrogen receptors ERα and ERβ
T1 sequence (P03372 1-595): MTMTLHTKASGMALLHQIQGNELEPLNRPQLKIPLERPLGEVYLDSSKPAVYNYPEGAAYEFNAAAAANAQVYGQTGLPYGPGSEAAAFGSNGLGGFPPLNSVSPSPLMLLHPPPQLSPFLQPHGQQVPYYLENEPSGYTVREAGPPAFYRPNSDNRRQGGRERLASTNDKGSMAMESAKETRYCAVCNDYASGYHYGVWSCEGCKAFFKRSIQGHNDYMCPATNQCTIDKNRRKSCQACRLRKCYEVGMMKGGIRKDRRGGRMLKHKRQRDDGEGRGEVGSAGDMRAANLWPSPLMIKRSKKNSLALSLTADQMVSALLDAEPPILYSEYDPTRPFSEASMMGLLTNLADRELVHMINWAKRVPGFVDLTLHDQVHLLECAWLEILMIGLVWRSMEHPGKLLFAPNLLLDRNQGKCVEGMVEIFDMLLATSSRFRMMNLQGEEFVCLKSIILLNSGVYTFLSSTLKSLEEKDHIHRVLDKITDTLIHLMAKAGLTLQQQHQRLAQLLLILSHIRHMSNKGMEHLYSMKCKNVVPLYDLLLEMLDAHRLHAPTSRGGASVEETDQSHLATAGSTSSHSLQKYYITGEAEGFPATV
Method: The receptors and ligands were incubated for 18–24 h at 0 °C and then the receptor–ligand complexes separated using hydroxyapatite (BioRad, Hercules, CA, USA).

[2] = target: T2, full-length purified human estrogen receptor ERβ (Homo sapiens, UniProt Q92731); experiment: ERβ competitive radiometric binding assay; conditions: for RBA ERβ (relative binding affinity): RBA = IC50[estradiol]/IC50[compound] × 100, estradiol = 100, 2 nM [3H]-estradiol tracer, 18–24 h at 0 °C
T2 construct: full-length purified human estrogen receptors ERα and ERβ
Method: . The receptors and ligands were incubated for 18–24 h at 0 °C and then the receptor–ligand complexes separated using hydroxyapatite (BioRad, Hercules, CA, USA). […]

MCF-7 cells = experiment: MCF-7 cell proliferation, sulforhodamine B (SRB) assay; assay type: cell-based, human; conditions: 0.001–1 µM, 48 h exposure, vs vehicle control
Method: The SRB assay has been used to study the effects of phytochemicals such as XN, DXN and 8-PN on cell proliferation of various cancer cell lines, including MCF-7 cells[91],[92]. SRB is a dye that binds to cellular proteins of adherent cells and the absorbance readings are a measure of the number of viable cells (cell mass) attached to the culture plate after incubation with the test compounds (samples) in comparison with vehicle control cells. The cell mass is then extrapolated as a measurement of cell viability and cell proliferation. Increased proliferation of MCF-7 cells is one of the measures of estrogenicity of phytochemicals. MCF-7 cells were plated at 10,000 cells/well in 96-well plates in DMEM medium containing 10% charcoal-stripped FBS and antibiotics. […] After incubation with the test compounds for 48 h, the cell culture medium was removed from each well of the 96-well plate and the cells were fixed for 1 h with 10% trichloroacetic acid. The cells on the plate were washed five with distilled water, air-dried, and then stained with SRB dye (0.4% w/v in 1% acetic acid). Excess dye was removed by washing the plate five times with 1% acetic acid. The plates were air-dried and the adsorbed dye was solubilized in 10 mM Tris buffer for 5 min on a shaker before reading the optical density (OD) at 565 nm. The percentage cell viability/proliferation was calculated as follows: (ODSample−ODZeroblank)/(ODControl−ODZeroblank)×100. Mean values and the coefficient of variation (CV) from six replicate wells were calculated and a one-way ANOVA was used to compare statistical differences between treated and control cells, with p < 0.05 as the level of significance.

[3] = test system: progesterone receptor (PGR) expression in MCF-7 cells; experiment: Progesterone receptor (PGR) gene expression in MCF-7 cells, real-time PCR; assay type: cell-based, human; conditions: 20 h; estradiol 1 and 10 nM; 8-PN, XN, DXN, TXN 0.2, 1 and 5 μM; vs 0.1% ethanol
Method: MCF-7 cells (American Type Culture Collection, Manassas, VA, USA) were cultured in DMEM (Corning Life Sciences, Tewksbury, MA, USA) supplemented with 10% fetal bovine serum (Corning Life Sciences) and 100 μg/ml penicillin/streptomycin (Invitrogen, Carlsbad, CA, USA). For estrogen-free experiments, cells were seeded in phenol-free DMEM (Gibco/Life Technologies, Grand Island, NY, USA) plus 10% charcoal-dextran-treated FBS (Corning Life Sciences) at 5 × 10^5 cells/well of a 6-well plate. […] Total RNA was isolated using TRIzol (Invitrogen) and converted into cDNA using iScript (Bio-Rad, Hercules, CA, USA). Real-time PCR was performed in triplicate on a CFX-96 (Bio-Rad) using primer-probe assays (IDT Technologies, Coralville, IA, USA) and SsoAdvanced Universal Probes Supermix (Bio-Rad) to quantify progesterone receptor (PGR) and GAPDH levels. The ratio of PGR to GAPDH was calculated as 2^−ΔCt PGR/2^−ΔCt GAPDH. Data were analyzed using a one-way ANOVA (p < 0.05 was considered statistically significant) and a post-hoc Tukey’s multiple comparison test. Induction of the progesterone receptor in MCF-7 cells is one of the indices of estrogenicity of flavonoids such as 8-PN[94].

C2C12 cells = experiment: Seahorse OCR and ECAR measurements (mitochondrial uncoupling); assay type: cell-based, mouse; conditions: oligomycin 1 μM, C2C12 cells
Method: OCR and ECAR measurements were performed with a Seahorse XF 24 Analyzer (Agilent Technologies, Inc., Santa Clara, CA, USA). C2C12 cells were plated in culture medium at a density of 40,000 cells per well in a 24-well plate. The cells were then allowed to adhere for 24 h (37 °C, 5% CO2). Prior to the assay, the cells were washed with freshly prepared running medium consisting of Seahorse XF Assay medium (Agilent Technologies, Inc., Santa Clara, CA, USA), 10 mM glucose and 1 mM sodium pyruvate. The pH of the medium was adjusted to 7.4 with 1 M NaOH. The cells were then equilibrated for one hour at 37 °C without CO2. […] To overcome this problem, the test compounds were first dissolved in ethanol and the resulting solution was diluted 100-fold in treatment medium (9 parts XF media and 1 part 10% FBS media) which was added directly to cells. The treatment medium contained 1% FBS and after a further 10-fold dilution into the media in wells, only 0.1% FBS was present during OCR and ECAR measurements. The final concentrations in the wells were: 1 μM for oligomycin, and 5 μM for XN, DXN or TXN. The concentration of oligomycin and the cell density used were selected based on preliminary experiments. Ethanol was added to the control wells not to exceed a final concentration of 0.1% (vehicle control). OCR and ECAR were measured at 9-min intervals.
Seahorse data: to show a consistent baseline, OCR values (in pmol/min/mg protein) and ECAR values (in mpH/min/mg protein) for each value were divided, prior to statistical analysis, by the average of the four pre oligomycin treatment values (0, 8, 17, and 25 min) for the corresponding well and are shown as % pre oligomycin values. To account for repeated measures within wells over time, we utilized a repeated-measures-in-time design using ANOVA procedures in PROC MIXED (SAS). Fixed effects in the model were treatment (control, 5 μM XN, 5 μM DXN, and 5 μM TXN for the compound study), time (0, 8, 17, 25, 34, 43, 52, 60, 69, 78, 86, and 95 min), and their interaction. The random effect was the experiment (5 experiments for the compound study). To account for repeated measures within wells over time, a first order homogeneous variance-covariance matrix [AR(1)] was fitted for each well. Using the ESTIMATE statement, a priori contrasts were constructed by comparing the changes in compound treated cells from the last two time points prior to compound treatment (average 52 and 60 min) to the changes in control cells during the same time-period. This was carried out for each compound and dosage for 69, 78, 86, and 95 min separately and for all four time points combined. Results are shown in the text and the graphs as least squares means and their corresponding SEM (standard error of mean). […]

[4] = design: method as in PMID 17517853, PMID 20154334; conditions: meta-analysis of 42 trials, p = 0.03; cited from earlier work

T2 sequence (Q92731 whole entry): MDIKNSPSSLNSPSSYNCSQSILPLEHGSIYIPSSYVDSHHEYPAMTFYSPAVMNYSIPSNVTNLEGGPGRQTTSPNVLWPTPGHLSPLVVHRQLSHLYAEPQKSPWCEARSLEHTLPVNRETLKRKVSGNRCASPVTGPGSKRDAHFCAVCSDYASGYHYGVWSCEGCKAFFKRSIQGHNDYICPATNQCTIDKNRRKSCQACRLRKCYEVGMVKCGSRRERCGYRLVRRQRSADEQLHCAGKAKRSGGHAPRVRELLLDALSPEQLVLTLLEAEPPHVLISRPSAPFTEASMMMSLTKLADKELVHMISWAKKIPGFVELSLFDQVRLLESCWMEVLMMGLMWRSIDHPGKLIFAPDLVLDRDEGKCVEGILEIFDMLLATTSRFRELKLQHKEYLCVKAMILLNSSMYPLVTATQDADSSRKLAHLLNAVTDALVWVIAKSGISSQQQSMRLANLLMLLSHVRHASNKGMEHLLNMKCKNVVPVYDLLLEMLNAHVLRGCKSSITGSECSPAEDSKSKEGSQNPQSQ

SMILES	RBA ERα (relative binding affinity) [1]	RBA ERβ (relative binding affinity) [2]	induction of PGR expression [3]	also measured
CC(C)=CCc1c(O)cc(O)c2c1O[C@H](c1ccc(O)cc1)CC2=O [8-PN, 8-prenylnaringenin, reference compound]	0.686 ± 0.18	2.42 ± 0.62	statistically significant induction	fold greater affinity for ERα compared to XN, DXN, and TXN [1]: > 100 fold; fold greater affinity for ERβ compared to XN, DXN, and TXN [2]: > 100 fold; MCF-7 cell viability/proliferation at low concentrations (MCF-7 cells): induced cell proliferation
COc1cc(O)c(CC=C(C)C)c2c1C(=O)CC(c1ccc(O)cc1)O2 (centres unmarked) [IX, Isoxanthohumol, reference compound]	0.0020 ± 0.0002	0.019 ± 0.004		
C[C@]12CC[C@@H]3c4ccc(O)cc4CC[C@H]3[C@@H]1CC[C@@H]2O [estradiol, 17β-estradiol, reference compound]			statistically significant induction	
CC[C@H]1/C=C/C=C/C[C@@H](C)[C@H](O)[C@@](C)(O)C(=O)[C@@H](C)[C@H](O)[C@@H](C)C(=O)[C@@H](C)[C@H](O)[C@@H](C)/C=C/C(=O)O[C@@H]2[C@H](C)[C@H](CC1)O[C@]1(CC[C@H](C)[C@H](C[C@@H](C)O)O1)[C@H]2C [oligomycin, reference compound]				Increase in ECAR (C2C12 cells): 1.6 fold
CN(CCOc1ccc(CC2SC(=O)NC2=O)cc1)c1ccccn1 (centres unmarked) [rosiglitazone]				Increased risk of heart attack [4]: 43%
